Values quoted from earlier work as cited in paper PMC6862717 (ACS chemical neuroscience, 2018).

Tests used:
[1] = system: transgenic animal model of AD
[2] = system: animal model of neuropathic pain

Molecule | cognitive performance in wild-type mice (wild-type mice) | neuroprotective properties in nematodes (nematodes) | efficacy in a transgenic animal model of AD [1] | mechanical hypersensitivity [2]
CN1CCN(c2ccc3c(c2)[C@H]2C[C@@H]3CCN2C(=O)OCc2ccccc2)CC1 (racemic) [SAS-0132] | improves cognitive performance | shows neuroprotective properties | efficacious | 
UKH-1114 |  |  |  | relieves mechanical hypersensitivity
